Nine molecules from the Kinase Knowledgebase extract (Sharma et al. 2016) can be followed below.

Each structure is given as a SMILES string.

The target of test [1] is EGFR (Human), P00533 [T790M/L858R]. In words: Enzyme Assay.
The target of test [2] is EGFR (human), P00533 [L858R]. In words: Enzyme Assay.
For test [3], the target named is EGFR (human), P00533 [WT].
Chain of EGFR (human), P00533 [WT] (P00533 whole entry, looked up): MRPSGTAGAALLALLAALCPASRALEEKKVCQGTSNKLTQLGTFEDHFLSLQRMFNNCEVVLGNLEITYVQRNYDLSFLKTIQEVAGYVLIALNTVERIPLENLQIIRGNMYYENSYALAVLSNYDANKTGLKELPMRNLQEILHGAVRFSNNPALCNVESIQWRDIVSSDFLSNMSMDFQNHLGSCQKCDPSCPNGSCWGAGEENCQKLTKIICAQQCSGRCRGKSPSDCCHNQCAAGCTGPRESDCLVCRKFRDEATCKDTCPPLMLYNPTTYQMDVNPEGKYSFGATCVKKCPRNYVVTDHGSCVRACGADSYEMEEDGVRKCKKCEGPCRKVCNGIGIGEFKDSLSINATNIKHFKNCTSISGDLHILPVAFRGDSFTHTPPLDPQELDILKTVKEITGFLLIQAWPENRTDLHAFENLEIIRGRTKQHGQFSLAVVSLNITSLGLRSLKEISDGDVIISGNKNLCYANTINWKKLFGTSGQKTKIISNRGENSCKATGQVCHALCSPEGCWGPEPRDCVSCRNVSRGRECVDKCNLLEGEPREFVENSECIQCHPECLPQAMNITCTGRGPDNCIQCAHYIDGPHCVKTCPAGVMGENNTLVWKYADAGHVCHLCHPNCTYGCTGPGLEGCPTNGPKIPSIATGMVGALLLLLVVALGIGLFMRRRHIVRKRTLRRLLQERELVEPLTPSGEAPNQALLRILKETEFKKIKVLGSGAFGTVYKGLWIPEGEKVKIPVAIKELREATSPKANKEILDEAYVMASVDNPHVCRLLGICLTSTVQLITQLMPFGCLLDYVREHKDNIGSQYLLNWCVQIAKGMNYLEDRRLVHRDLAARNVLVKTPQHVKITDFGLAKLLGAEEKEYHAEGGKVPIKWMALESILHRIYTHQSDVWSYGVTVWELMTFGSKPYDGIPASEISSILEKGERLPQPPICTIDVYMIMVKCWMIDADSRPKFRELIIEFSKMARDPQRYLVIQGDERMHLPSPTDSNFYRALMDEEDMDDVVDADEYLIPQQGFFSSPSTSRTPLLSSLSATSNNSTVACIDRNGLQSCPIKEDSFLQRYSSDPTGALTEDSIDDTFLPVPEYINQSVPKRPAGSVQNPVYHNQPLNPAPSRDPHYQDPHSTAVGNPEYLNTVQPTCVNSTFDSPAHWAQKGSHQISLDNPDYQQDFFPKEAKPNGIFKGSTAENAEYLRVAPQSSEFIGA

Chain of EGFR (Human), P00533 [T790M/L858R] (P00533 whole entry T790M/L858R, looked up): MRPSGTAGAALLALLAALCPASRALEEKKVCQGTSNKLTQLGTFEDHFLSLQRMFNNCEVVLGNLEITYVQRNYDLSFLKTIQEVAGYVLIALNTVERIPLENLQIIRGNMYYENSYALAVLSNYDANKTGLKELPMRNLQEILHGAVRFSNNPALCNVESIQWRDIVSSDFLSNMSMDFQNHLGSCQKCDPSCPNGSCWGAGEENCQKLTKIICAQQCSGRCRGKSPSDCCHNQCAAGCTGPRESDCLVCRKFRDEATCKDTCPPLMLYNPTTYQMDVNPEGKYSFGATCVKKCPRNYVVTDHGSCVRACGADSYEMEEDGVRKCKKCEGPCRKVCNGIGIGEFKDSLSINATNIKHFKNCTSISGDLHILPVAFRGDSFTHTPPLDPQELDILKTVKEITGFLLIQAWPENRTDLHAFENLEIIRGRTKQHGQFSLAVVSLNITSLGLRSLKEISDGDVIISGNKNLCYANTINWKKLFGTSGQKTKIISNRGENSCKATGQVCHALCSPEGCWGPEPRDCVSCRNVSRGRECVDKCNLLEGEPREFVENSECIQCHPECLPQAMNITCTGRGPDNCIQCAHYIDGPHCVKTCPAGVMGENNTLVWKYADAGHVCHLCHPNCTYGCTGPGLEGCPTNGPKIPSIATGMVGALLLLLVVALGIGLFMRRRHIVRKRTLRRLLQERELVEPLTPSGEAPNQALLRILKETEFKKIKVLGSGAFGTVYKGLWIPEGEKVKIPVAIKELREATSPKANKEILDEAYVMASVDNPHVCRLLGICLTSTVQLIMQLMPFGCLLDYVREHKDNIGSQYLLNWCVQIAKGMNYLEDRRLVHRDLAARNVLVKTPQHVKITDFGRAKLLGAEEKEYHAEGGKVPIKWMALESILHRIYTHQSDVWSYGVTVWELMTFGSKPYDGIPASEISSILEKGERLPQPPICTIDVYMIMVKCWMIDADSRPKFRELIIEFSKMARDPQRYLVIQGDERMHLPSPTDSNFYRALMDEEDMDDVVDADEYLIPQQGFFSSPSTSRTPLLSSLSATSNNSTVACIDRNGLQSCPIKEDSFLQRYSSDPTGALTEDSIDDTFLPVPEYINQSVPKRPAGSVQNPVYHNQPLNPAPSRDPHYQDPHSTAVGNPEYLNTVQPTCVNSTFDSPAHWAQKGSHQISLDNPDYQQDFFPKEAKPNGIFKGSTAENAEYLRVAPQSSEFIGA
Chain of EGFR (human), P00533 [L858R] (P00533 whole entry L858R, looked up): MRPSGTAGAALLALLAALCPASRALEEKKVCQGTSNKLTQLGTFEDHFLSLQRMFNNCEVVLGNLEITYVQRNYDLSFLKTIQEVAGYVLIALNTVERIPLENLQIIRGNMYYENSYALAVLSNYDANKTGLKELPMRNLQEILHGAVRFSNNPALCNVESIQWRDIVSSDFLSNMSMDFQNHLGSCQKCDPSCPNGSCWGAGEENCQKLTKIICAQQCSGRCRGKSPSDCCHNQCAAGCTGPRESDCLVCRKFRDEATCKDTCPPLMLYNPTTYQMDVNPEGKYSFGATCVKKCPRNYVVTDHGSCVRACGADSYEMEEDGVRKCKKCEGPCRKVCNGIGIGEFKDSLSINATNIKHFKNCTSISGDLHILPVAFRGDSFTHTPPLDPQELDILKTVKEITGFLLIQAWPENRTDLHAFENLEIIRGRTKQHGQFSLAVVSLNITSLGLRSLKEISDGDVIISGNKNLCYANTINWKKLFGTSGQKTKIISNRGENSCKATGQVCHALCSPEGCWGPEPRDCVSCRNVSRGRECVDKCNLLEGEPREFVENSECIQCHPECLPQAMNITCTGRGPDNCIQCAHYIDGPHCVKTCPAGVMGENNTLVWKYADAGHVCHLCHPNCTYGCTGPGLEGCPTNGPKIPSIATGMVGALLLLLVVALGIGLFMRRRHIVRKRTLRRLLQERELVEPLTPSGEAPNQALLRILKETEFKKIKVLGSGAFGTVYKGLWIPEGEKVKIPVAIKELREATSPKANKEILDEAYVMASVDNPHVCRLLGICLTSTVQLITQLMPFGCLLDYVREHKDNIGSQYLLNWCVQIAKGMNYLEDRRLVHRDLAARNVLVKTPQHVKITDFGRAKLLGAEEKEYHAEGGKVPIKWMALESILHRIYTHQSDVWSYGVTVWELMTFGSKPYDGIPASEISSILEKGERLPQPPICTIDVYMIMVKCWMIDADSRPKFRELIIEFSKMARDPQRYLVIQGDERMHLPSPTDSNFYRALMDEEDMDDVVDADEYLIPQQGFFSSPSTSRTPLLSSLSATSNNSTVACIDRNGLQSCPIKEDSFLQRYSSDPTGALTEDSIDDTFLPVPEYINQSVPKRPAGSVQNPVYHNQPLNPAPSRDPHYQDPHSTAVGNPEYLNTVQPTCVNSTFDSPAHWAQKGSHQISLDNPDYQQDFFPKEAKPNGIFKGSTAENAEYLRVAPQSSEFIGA

For orientation: IC50 means the concentration at which inhibition is half-maximal. In the case of `CN(C)[C@@H]1CCN(Cc2ccc(C(=O)N[C@@H]3[C@H]4Oc5ccc(Oc6ccnc7c6CCC(=O)N7)cc5[C@@H]34)cc2C(F)(F)F)C1`, the IC50 in test [1] turned out to be 3.1 nM; in test [2] it was 0.67 nM.
For `O=C(C=Cc1cccc(C(F)(F)F)c1)N[C@@H]1[C@H]2Oc3ccc(Oc4ccnc5c4CCC(=O)N5)cc3[C@@H]12`, in that order: 1140 nM and 68 nM.
Take `CN1CCN(Cc2ccc(C(=O)N[C@@H]3[C@H]4Oc5ccc(Oc6ccnc7c6COC(=O)N7)cc5[C@@H]34)cc2C(F)(F)F)CC1`: the IC50 is 0.49 nM in test [1] and 0.29 nM in test [2].
For `CN1CCN(CCOc2ccc(C(=O)N[C@@H]3[C@H]4Oc5ccc(Oc6ccnc7c6CCC(=O)N7)cc5[C@@H]34)cc2C(F)(F)F)CC1`, in that order: 32 nM and 12 nM.
For `O=C1CCc2c(Oc3ccc4c(c3)[C@H]3[C@H](NC(=O)c5ccc(CN6CCN(CCO)CC6)c(C(F)(F)F)c5)[C@H]3O4)ccnc2N1`, in that order: 0.76 nM and 0.26 nM.
For `CN(C)C1CCN(Cc2ccc(C(=O)N[C@@H]3[C@H]4Oc5ccc(Oc6ccnc7c6CCC(=O)N7)cc5[C@@H]34)cc2C(F)(F)F)CC1`, in that order: 0.42 nM and 0.27 nM.
For `Cc1cc(C(=O)N[C@@H]2[C@H]3Oc4ccc(Oc5ccnc6c5CCC(=O)N6)cc4[C@@H]23)ccc1CN1CCN(C)CC1`, the IC50 in test [1] came to 3.1 nM; in test [2], 0.5 nM; in test [3], 1.5 nM.
For `CN(C)[C@H]1CCN(Cc2ccc(C(=O)N[C@@H]3[C@H]4Oc5ccc(Oc6ccnc7c6CCC(=O)N7)cc5[C@@H]34)cc2C(F)(F)F)C1`, the IC50 in test [1] and in test [2] was 0.3 nM in each case.
On to `CCCCCCCCCCCC(=O)N[C@@H]1[C@H]2Oc3ccc(Oc4ccnc5c4CCC(=O)N5)cc3[C@@H]12`, for which the IC50 in test [3] was determined as 8.9 nM.
